Measurements reported in patent US20260355199A1, “COMPOSITIONS AND METHODS FOR TREATING OR PREVENTING NONALCOHOLIC STEATOHEPATITIS (NASH), ANOREXIA, DEPRESSION, ENDOMETRIOSIS, AND OTHER DISEASES OR DISORDERS” (priority 2022, published 2026).
“Also recorded” adds a separate entry of the source.

What was measured:
Tet3 mRNA = assay: Tet3/Tet2 mRNA in RAW 264.7 cells; assay type: cell-based, mouse; details: RAW 264.7, 10 μM, 24 h
Method: For siRNA transfection in a 24-well plate scale of Raw 264.7 cells, 10 pmol of NT siRNA (AM4636, Ambion) or Tet3 siRNA (4390815/s101483, Ambion) was mixed with 100 μL of OPTI-MEM (Gibco, 31985-070) by gentle pipetting. In parallel, 3 μL of Lipofectamine RNAiMAX (Invitrogen, 13778-150) was mixed with 100 μL of OPTI-MEM by gentle pipetting. Following 5 min of incubation at RT, the two were combined and the resulting 200 μL of transfection solution was added to each well of cells. After 24 h of incubation at […] in a 5% humidified CO2 tissue culture incubator, 300 μL of growth media was added and incubation was continued until cell harvesting.
Bobcat339 Treatment of Cultured Cells Bobcat339 powder (Sigma-Aldrich, SML2611) was freshly dissolved in DMSO at a concentration of 5 mM and filtered through a 0.22 micron. Cells grown at a density of 80-90% were incubated in growth media with vehicle (DMSO) or Bobcat339 at a final concentration of 10 μM for 24 h, followed by RNA and protein extraction.
Total RNAs were extracted from cells using PureLink RNA Mini Kit. 0.5-1 μg total RNA was reverse transcribed to cDNA in a reaction volume of 20 μL using PrimeScript RT Reagent Kit. Real-time quantitative PCR was performed in a 15 μL reaction volume containing 0.5-1 μL of cDNA using SsoAdvanced Universal SYBR Green Supermix in a Bio-Rad iCycler. Gene expression levels were normalized against RPLP0.

Agrp promoter = assay: ChIP-qPCR at the Agrp promoter in mouse ARC; assay type: in vivo; details: leptin 5 mg/kg
Method: To prepare antibodies, 5 μl (packed volume) of ChIP grade Dynabeads Protein G (Invitrogen, Thermo Scientific, 10004D) were washed twice with 1 ml of binding buffer (0.2% Tween-20 in PBS), followed by incubation on a rotator with 10 μg of rabbit polyclonal anti-TET3 (Active Motif, 61395) (FIG. 12A), anti-STAT3 (Proteintech, 10253-2-AP), anti-NCOR1 (Cell Signaling, 5948S) (Hainberger et al., 2020, Front Immunol., 11:579), anti-HDAC4 (Active Motif, 40969) (FIG. 12B), anti-H3K9ac (Active Motif, 39137) (validated by the vendor), or preimmune rabbit IgG (as a negative control) in 350 μl of binding buffer at 4 °C overnight (Gao, Y. et al., 2020, Advanced Science, 7:2002518; Hainberger, D. et al., 2020, Frontiers in Immunology, 11:579). Antibody bound beads were washed twice with 1 ml of binding buffer, resuspended in 50 μl of dilution buffer (0.01% SDS, 1.1% Triton X-100, 1.2 mM EDTA, 16.7 mM Tris-HCl at PH 8.0, 167 mM NaCl), and kept on ice until use. To prepare chromatin, freshly isolated ARCs (2 ARCs from one mouse per ChIP, FIG. 6D and FIG. 6I) were washed twice with 1 ml of cold-PBS, followed by cross-linking in 1% paraformaldehyde/PBS on a rotator at room temperature for 15 min. Glycine buffer (150 mM final concentration) was added and incubated in rotation at room temperature for 10 min to quench cross-linking. Cross-linked ARCs were washed twice with PBS and homogenized (5-10 strokes) using a disposable pellet pestle (Fisher Scientific, 12-141-368) in 300 μl of cold cell lysis buffer (50 mM Tris-HCl at PH 8.0, 140 mM NaCl, 1 mM EDTA, 10% glycerol, 0.5% NP-40, 0.25% Triton X-100), followed by incubation at 4 °C for 20 min to lyse the plasma membrane. […]

Row | Compound | Tet3 mRNA (Tet3 mRNA) | histone acetylation (H3K9ac) at the Agrp promoter (Agrp promoter) | binding of STAT3, TET3, NCOR1, and HDAC4 to the Agrp promoter (Agrp promoter; AAV-sgTet3 mice) | binding of STAT3, TET3, NCOR1, and HDAC4 to the Agrp promoter (Agrp promoter; control mice)
1 | Nc1nc(=O)n(-c2cccc(-c3ccccc3)c2)cc1Cl [Bobcat339, 4-Amino-1-[1,1′-biphenyl]-3-yl-5-chloro-2(1H)-pyrimidinone] | without altering its mRNA abundance; also recorded: no significant difference in expression between the groups |  |  | 
2 | leptin: adipose hormone; mouse leptin L3772-1MG or human leptin L4146-1MG, Sigma Aldrich |  | reduction was observed in histone acetylation at the Agrp promoter | failed to do so in AAV-sgTet3 injected mice | increased binding of STAT3, TET3, NCOR1, and HDAC4 to the Agrp promoter
